Counter-ions that a name gives are not always drawn.
Each compound was assayed against T1, PDE7 (type VII phosphodiesterase) (Homo sapiens, UniProt Q13946) (assay: PDE7 inhibiting activity (3H-cAMP hydrolysis, active fraction from MOLT-4 cells)). Details: PDE7 fraction from MOLT-4 cells, 0.064 μM cAMP, 10 μM rolipram present, 2 hours at 25° C.; read-out: IC50 values for phosphodiesterase inhibiting activities (PDE7).
T1 construct: endogenous in cells; host or cells: MOLT-4 (ATCC CRL-1582), soluble fraction, HiTrapQ anion-exchange fraction
Format: biochemical
Experimental: To evaluate the compounds of the present invention for the ability to suppress PDE7 (type VII phosphodiesterase), the method of Biochemical Pharmacol. 48(6), 1219-1223 (1994) was partially modified to perform the following assay:
1) PDE7 (type VII phosphodiesterase) active fraction was obtained. That is, human acute lymphoblastoid lymphoma T cell strain MOLT-4 (purchasable from ATCC under ATCC No. CRL-1582) was cultured in RPMI1640 medium containing 10% fetal bovine serum to obtain 5×10^8 MOLT4 cells. The cells were harvested by centrifugation, and suspended in 10 ml of buffer A (25 mM tris-HCl, 5 mM 2-mercaptoethanol, 2 mM benzamidine, 2 mM EDTA, 0.1 mM 4-(2-aminoethyl)benzenesulfonyl hydrochloride, pH 7=7.5). The cells were homogenized in a Polytoron homogenizer, and centrifuged (4° C., 25,000 G, 10 min). The supernatant was further ultracentrifuged (4° C., 100,000 G, 60 min), and the resulting supernatant was filtered through a 0.2 μm filter to obtain a soluble fraction.
2) HiTrapQ column (5 ml×2) equilibrated with buffer A was charged with the resulting soluble fraction. Phosphodiesterase was eluted using 300 ml of buffer A containing a linear gradient solution of 0 to 0.8M sodium chloride to collect sixty 5 ml fractions. Each fraction was tested for cAMP metabolizing phosphodiesterase activity.
3) The test compounds at desired concentrations were each reacted for 2 hours at 25° C. in a reactant mixture containing 20 mM tris-HCl (pH 7.5), 1 mM MgCl2, 100 μM EDTA, 330 μg/ml bovine serum albumin, 4 μg/ml 5′-nucleotidase, 0.1 μCi^3H-cAMP (0.064 μM cAMP), 10 μM rolipram, and the type VII phosphodiesterase stored solution. QAE-Sephadex suspended in 10 mM HEPES-Na (pH 7.0) was added to the reaction mixture, and the mixture was allowed to stand for 5 minutes. Then, the supernatant was recovered, and QAE-Sephadex was further added, followed by allowing the mixture to stand for 5 minutes. Then, the resulting supernatant was measure for radioactivity.
4) IC50, as the concentration of the test compound that inhibited 50% of the metabolic activity of PDE7, was calculated for each of the compounds.

T1 sequence (Q13946 whole entry): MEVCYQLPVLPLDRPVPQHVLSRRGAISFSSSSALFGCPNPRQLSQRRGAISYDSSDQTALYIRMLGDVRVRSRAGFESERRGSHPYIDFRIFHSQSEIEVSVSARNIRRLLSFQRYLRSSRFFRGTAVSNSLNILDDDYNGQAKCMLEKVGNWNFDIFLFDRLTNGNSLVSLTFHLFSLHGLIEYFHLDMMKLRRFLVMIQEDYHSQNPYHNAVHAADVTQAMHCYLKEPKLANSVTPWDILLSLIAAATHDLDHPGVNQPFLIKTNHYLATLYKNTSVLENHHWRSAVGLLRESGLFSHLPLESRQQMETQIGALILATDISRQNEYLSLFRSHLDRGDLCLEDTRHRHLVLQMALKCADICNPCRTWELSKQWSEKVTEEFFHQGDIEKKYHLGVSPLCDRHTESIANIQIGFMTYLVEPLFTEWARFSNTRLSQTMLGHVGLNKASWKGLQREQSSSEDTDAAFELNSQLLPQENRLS

| SMILES | IC50 |
| --- | --- |
| COc1cc(N2CCN(C)CC2)c(F)cc1-c1nc2c(c(C3CCCCC3)nn2C)c(=O)[nH]1 [Example 82, 3-Cyclohexyl-6-[5-fluoro-2-methoxy-4-(4-methyl-1-piperazinyl)phenyl]-1-methyl-1,5-dihydro-4H-pyrazolo[3,4-d]pyrimidin-4-one] | ≤ 10 nM |
| COc1ccc(F)cc1-c1nc2c(c(C3CCCCC3)nn2C)c(=O)[nH]1 [Example 74, 3-Cyclohexyl-6-(5-fluoro-2-methoxyphenyl)-1-methyl-1,5-dihydro-4H-pyrazolo[3,4-d]pyrimidin-4-one] | ≤ 1000 nM |
| CNC1CCN(S(=O)(=O)c2ccc(-c3nc4c(C)nn(C5CCCCC5)c4c(=O)[nH]3)c(OC)c2)CC1 [Example 222, 1-Cyclohexyl-5-(2-methoxy-4-{[4-(methylamino)-1-piperidinyl]sulfonyl}phenyl)-3-methyl-1,6-dihydro-7H-pyrazolo[4,3-d]pyrimidin-7-one] | ≤ 1000 nM |
| CNCCN(C)c1ccc(-c2nc3c(c(C4CCCCC4)nn3C)c(=O)[nH]2)c(OC)c1 [Example 84, 3-Cyclohexyl-6-(2-methoxy-4-{methyl[2-(methylamino)ethyl]amino}phenyl)-1-methyl-1,5-dihydro-4H-pyrazolo[3,4-d]pyrimidin-4-one monomethanesulfonate] | ≤ 10 nM |
| COc1cc(N(C)CCO)ccc1-c1nc2c(C)nn(C3CCCCC3)c2c(=O)[nH]1 [Example 107, 1-Cyclohexyl-5-{4-[(2-hydroxyethyl)(methyl)amino]-2-methoxyphenyl}-3-methyl-1,6-dihydro-7H-pyrazolo[4,3-d]pyrimidin-7-one] | ≤ 10 nM |
| COc1cc(N2CCC(O)CC2)ccc1-c1nc2c(C)nn(C3CCCCC3)c2c(=O)[nH]1 [Example 258, 1-Cyclohexyl-5-[4-(4-hydroxy-1-piperidinyl)-2-methoxyphenyl]-3-methyl-1,6-dihydro-7H-pyrazolo[4,3-d]pyrimidin-7-one] | ≤ 1000 nM |
| COCCNc1ccc(-c2nc3c(C)nn(C4CCCCC4)c3c(=O)[nH]2)c(OC)c1 [Example 225, 1-Cyclohexyl-5-{2-methoxy-4-[(2-methoxyethyl)amino]phenyl}-3-methyl-1,6-dihydro-7H-pyrazolo[4,3-d]pyrimidin-7-one] | ≤ 10 nM |
| Cn1nc(C2CCCCC2)c2c(=O)[nH]c(-c3ccccn3)nc21 [Example 25, 3-Cyclohexyl-1-methyl-6-(2-pyridinyl)-1,5-dihydro-4H-pyrazolo[3,4-d]pyrimidin-4-one] | ≤ 1000 nM |
| COc1cc(S(=O)(=O)NCCN(C)C)ccc1-c1nc2c(c(C3CCCCC3)nn2C)c(=O)[nH]1 [Example 56, 4-(3-Cyclohexyl-1-methyl-4-oxo-4,5-dihydro-1H-pyrazolo[3,4-d]pyrimidin-6-yl)-N-[2-(dimethylamino)ethyl]-3-methoxybenzenesulfonamide monochloride] | ≤ 1000 nM |
| COc1cc(S(=O)(=O)N2CCCN(C)CC2)ccc1-c1nc2c(C)nn(C3CCCCC3)c2c(=O)[nH]1 [Example 198, 1-Cyclohexyl-5-{2-methoxy-4-[(4-methyl-1,4-diazepan-1-yl)sulfonyl]phenyl}-3-methyl-1,6-dihydro-7H-pyrazolo[4,3-d]pyrimidin-7-one] | ≤ 1000 nM |
| CCOc1cc(S(=O)(=O)N2CCC(O)CC2)ccc1-c1nc2c(C)nn(C3CCCCC3)c2c(=O)[nH]1 [Example 257, 1-Cyclohexyl-5-{2-ethoxy-4-[(4-hydroxy-1-piperidinyl)sulfonyl]phenyl}-3-methyl-1,6-dihydro-7H-pyrazolo[4,3-d]pyrimidin-7-one] | ≤ 1000 nM |
| COc1cc(N2CCC(N(C)C)CC2)ccc1-c1nc2c(c(C3CCCCC3)nn2C)c(=O)[nH]1 [Example 154, 3-Cyclohexyl-6-{4-[4-(dimethylamino)-1-piperidinyl]-2-methoxyphenyl}-1-methyl-1,5-dihydro-4H-pyrazolo[3,4-d]pyrimidin-4-one monomethanesulfonate] | ≤ 10 nM |
| CCN(CCO)c1ccc(-c2nc3c(C)nn(C4CCCCC4)c3c(=O)[nH]2)c(OC)c1 [Example 115, 1-Cyclohexyl-5-{4-[(2-hydroxyethyl)(ethyl)amino]-2-methoxyphenyl}-3-methyl-1,6-dihydro-7H-pyrazolo[4,3-d]pyrimidin-7-one monohydrochloride] | ≤ 1000 nM |

Continued, values first:

| IC50 | SMILES |
| --- | --- |
| ≤ 1000 nM | Cc1nn(C2CCCCC2)c2c(=O)[nH]c(-c3ccccc3)nc12 [Example 1, 1-Cyclohexyl-3-methyl-5-phenyl-1,6-dihydro-7H-pyrazolo[4,3-d]pyrimidin-7-one] |
| ≤ 10 nM | COc1cc(O[C@H]2CCOC2)ccc1-c1nc2c(c(C3CCCCC3)nn2C)c(=O)[nH]1 [Example 38, 3-Cyclohexyl-6-{2-methoxy-4-[(3S)-tetrahydro-3-furanyloxy]phenyl}-1-methyl-1,5-dihydro-4H-pyrazolo[3,4-d]pyrimidin-4-one] |
| ≤ 10 nM | COc1cc(NC(N)=O)ccc1-c1nc2c(c(C3CCCCC3)nn2C)c(=O)[nH]1 [Example 140, N-[4-(3-cyclohexyl-1-methyl-4-oxo-4,5-dihydro-1H-pyrazolo[3,4-d]pyrimidin-6-yl)-3-methoxyphenyl]urea] |
| ≤ 10 nM | CCOc1cc(N2CCCNCC2)ccc1-c1nc2c(C)nn(C3CCCCC3)c2c(=O)[nH]1 [Example 262, 1-Cyclohexyl-5-[4-(1,4-diazepan-1-yl)-2-ethoxyphenyl]-3-methyl-1,6-dihydro-7H-pyrazolo[4,3-d]pyrimidin-7-one] |
| ≤ 1000 nM | COCCNS(=O)(=O)c1ccc(-c2nc3c(c(C4CCCCC4)nn3C)c(=O)[nH]2)c(OC)c1 [Example 57, 4-(3-Cyclohexyl-1-methyl-4-oxo-4,5-dihydro-1H-pyrazolo[3,4-d]pyrimidin-6-yl)-3-methoxy-N-(2-methoxyethyl) benzenesulfonamide] |
| ≤ 1000 nM | COc1cc(CN2CCOCC2)ccc1-c1nc2c(C)nn(C3CCCCC3)c2c(=O)[nH]1 [Example 235, 1-Cyclohexyl-5-[2-methoxy-4-(4-morpholinylmethyl)phenyl]-3-methyl-1,6-dihydro-7H-pyrazolo[4,3-d]pyrimidin-7-one] |
| ≤ 1000 nM | COc1cc(N2CCOCC2)ccc1-c1nc2c(c(C3CCCCC3)nn2C)c(=O)[nH]1 [Example 59, 3-Cyclohexyl-6-[2-methoxy-4-(4-morpholinyl)phenyl]-1-methyl-1,5-dihydro-4H-pyrazolo[3,4-d]pyrimidin-4-one] |
| ≤ 10 nM | CNC1CCN(c2ccc(-c3nc4c(C)nn(C5CCCCC5)c4c(=O)[nH]3)c(OC)c2)CC1 [Example 92, 1-Cyclohexyl-5-{2-methoxy-4-[4-(methylamino)-1-piperidinyl]phenyl}-3-methyl-1,6-dihydro-7H-pyrazolo[4,3-d]pyrimidin-7-one] |
| ≤ 1000 nM | COc1cc(S(=O)(=O)N2CCC(C(=O)O)CC2)ccc1-c1nc2c(c(C3CCCCC3)nn2C)c(=O)[nH]1 [Example 54, 1-{[4-(3-Cyclohexyl-1-methyl-4-oxo-4,5-dihydro-1H-pyrazolo[3,4-d]pyrimidin-6-yl)-3-methoxyphenyl]sulfonyl}-4-piperidinecarboxylic acid] |
| ≤ 10 nM | COc1cc(N2CCNCC2)c(F)cc1-c1nc2c(c(C3CCCCC3)nn2C)c(=O)[nH]1 [Example 81, monomethanesulfonate] |
| ≤ 1000 nM | COc1ccccc1-c1nc2c(c(C3CCCCC3)nn2C)c(=O)[nH]1 [Example 24, 3-Cyclohexyl-6-(2-methoxyphenyl)-1-methyl-1,5-dihydro-4H-pyrazolo[3,4-d]pyrimidin-4-one] |
| ≤ 1000 nM | CC(=O)Nc1ccc(-c2nc3c(C)nn(C4CCCCC4)c3c(=O)[nH]2)cc1 [Example 4, N-[4-(1-cyclohexyl-3-methyl-7-oxo-6,7-dihydro-1H-pyrazolo[4,3-d]pyrimidin-5-yl)phenyl]acetamide] |
| ≤ 1000 nM | Cc1nn(C2CCCCC2)c2c(=O)[nH]c(-c3ccccn3)nc12 [Example 6, 1-Cyclohexyl-3-methyl-5-(2-pyridinyl)-1,6-dihydro-7H-pyrazolo[4,3-d]pyrimidin-7-one] |
| ≤ 10 nM | COc1cc(N2CCS(=O)(=O)CC2)ccc1-c1nc2c(c(C3CCCCC3)nn2C)c(=O)[nH]1 [Example 192, 3-Cyclohexyl-6-[4-(1,1-dioxido-4-thiomorpholinyl)-2-methoxyphenyl]-1-methyl-1,5-dihydro-4H-pyrazolo[3,4-d]pyrimidin-4-one] |
| ≤ 1000 nM | COc1cc(S(=O)(=O)N2CCSCC2)ccc1-c1nc2c(c(C3CCCCC3)nn2C)c(=O)[nH]1 [Example 165, 3-Cyclohexyl-6-[2-methoxy-4-(4-thiomorpholinylsulfonyl)phenyl]-1-methyl-1,5-dihydro-4H-pyrazolo[3,4-d]pyrimidin-4-one] |

Source: patent US7268128B2, “1,3,5-trisubstituted-5-phenyl and 5-pyridyl pyrazolopyrimidinone derivatives having PDE7 inhibiting action” (Ausbio Pharma Co., Ltd., priority 2001, dated 2007)
